Data published in US5250424A, “Processes for preparing novel squalene synthetase inhibitors” (Merck & Co., Inc., priority 1992, dated 1993).

Test system: squalene synthetase
Test: Squalene synthetase assay (rat liver microsomes, [4-14C]farnesyl pyrophosphate)
Format: biochemical
Conditions: C18 HPLC fractions of Curvularia lunata (MF5573 or MF5572) fermentation extract, shown to contain Compound (I)
Description: Male, Charles River CD rats (120 to 150 g) were fed a diet containing 0.1% lovastatin for 4 days. The livers from these rats were homogenized in 5 volumes (mL/g) of ice cold 50 mm HEPES (4-(2-hydroxyethyl)-1-piperazine-ethanesulfonic acid), 5 mm EDTA(ethylenediaminetetraacetic acid) pH 7.5 with a Potter-Elvehjem type tissue grinder. The homogenate was centrifuged twice at 20,000×g for 15 min. at 4° C., discarding the pellet each time. The supernatant was then centrifuged at 100,000×g for 1 hr. at 4° C. The resulting microsomal pellet was resuspended in a volume of the above homogenizing buffer equal to one-fifth the volume of the original homogenate. This microsomal preparation has a protein concentration of about 7 mg/ml. The microsomal suspensions were stored in aliquots at -70° C. Squalene synthetase activity in these aliquots is stable for at least several months.
SQUALENE SYNTHETASE ASSAY
Reactions were performed in 16×125 mm screw cap test tubes. A batch assay mix was prepared from the following solution:
This assay mix was degassed under a vacuum and flushed with N2. […] Ten mL of scintillation fluid was added to the heptane solution and radio-activity was determined by liquid scintillation counting.
Percent inhibition is calculated by the formula: [formula]

activity in the squalene synthetase assay: active
Compound: C=C(CCC12OC(C(=O)O)C(O)(C(=O)O)C(C(=O)O)(O1)C(OC(=O)/C=C/C(C)CC(C)CC)C2O)C(OC(C)=O)C(C)Cc1ccccc1 (stereo not shown) [Compound (I)]
